Laboratory results from US20100063085A1, “METHOD OF TREATING LEARNING IMPAIRMENT IN DOWN'S SYNDROME SUBJECTS” (University Court of The University of Dundee, priority 2008, published 2010).
Read-outs that look alike come from different tables or passages of the source.

Experiments:
CAMK-1 = CAMK-1 (Homo sapiens, UniProt Q14012); assay: biochemical; conditions: read-out: CAMK-1 activity as percentage of control without inhibitor
Aurora B = Aurora B (Homo sapiens, UniProt Q96GD4); assay: biochemical; conditions: read-out: Aurora B activity as percentage of control without inhibitor
Chain of Aurora B (Q96GD4 whole entry): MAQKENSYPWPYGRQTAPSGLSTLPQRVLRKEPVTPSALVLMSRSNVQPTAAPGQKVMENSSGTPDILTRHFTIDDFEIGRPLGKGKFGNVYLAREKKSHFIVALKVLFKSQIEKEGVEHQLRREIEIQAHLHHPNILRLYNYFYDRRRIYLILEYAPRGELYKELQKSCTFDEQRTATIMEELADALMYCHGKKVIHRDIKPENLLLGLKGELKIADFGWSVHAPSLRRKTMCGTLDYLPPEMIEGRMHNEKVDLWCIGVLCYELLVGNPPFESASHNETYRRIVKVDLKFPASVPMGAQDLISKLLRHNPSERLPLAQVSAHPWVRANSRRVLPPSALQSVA

ROCK-II = ROCK-II (Homo sapiens, UniProt O75116); assay: ROCK-II 33P kinase assay; type: biochemical; conditions: read-out: ROCK-II activity as percentage of control without inhibitor
Chain of ROCK-II (O75116 whole entry, species assumed): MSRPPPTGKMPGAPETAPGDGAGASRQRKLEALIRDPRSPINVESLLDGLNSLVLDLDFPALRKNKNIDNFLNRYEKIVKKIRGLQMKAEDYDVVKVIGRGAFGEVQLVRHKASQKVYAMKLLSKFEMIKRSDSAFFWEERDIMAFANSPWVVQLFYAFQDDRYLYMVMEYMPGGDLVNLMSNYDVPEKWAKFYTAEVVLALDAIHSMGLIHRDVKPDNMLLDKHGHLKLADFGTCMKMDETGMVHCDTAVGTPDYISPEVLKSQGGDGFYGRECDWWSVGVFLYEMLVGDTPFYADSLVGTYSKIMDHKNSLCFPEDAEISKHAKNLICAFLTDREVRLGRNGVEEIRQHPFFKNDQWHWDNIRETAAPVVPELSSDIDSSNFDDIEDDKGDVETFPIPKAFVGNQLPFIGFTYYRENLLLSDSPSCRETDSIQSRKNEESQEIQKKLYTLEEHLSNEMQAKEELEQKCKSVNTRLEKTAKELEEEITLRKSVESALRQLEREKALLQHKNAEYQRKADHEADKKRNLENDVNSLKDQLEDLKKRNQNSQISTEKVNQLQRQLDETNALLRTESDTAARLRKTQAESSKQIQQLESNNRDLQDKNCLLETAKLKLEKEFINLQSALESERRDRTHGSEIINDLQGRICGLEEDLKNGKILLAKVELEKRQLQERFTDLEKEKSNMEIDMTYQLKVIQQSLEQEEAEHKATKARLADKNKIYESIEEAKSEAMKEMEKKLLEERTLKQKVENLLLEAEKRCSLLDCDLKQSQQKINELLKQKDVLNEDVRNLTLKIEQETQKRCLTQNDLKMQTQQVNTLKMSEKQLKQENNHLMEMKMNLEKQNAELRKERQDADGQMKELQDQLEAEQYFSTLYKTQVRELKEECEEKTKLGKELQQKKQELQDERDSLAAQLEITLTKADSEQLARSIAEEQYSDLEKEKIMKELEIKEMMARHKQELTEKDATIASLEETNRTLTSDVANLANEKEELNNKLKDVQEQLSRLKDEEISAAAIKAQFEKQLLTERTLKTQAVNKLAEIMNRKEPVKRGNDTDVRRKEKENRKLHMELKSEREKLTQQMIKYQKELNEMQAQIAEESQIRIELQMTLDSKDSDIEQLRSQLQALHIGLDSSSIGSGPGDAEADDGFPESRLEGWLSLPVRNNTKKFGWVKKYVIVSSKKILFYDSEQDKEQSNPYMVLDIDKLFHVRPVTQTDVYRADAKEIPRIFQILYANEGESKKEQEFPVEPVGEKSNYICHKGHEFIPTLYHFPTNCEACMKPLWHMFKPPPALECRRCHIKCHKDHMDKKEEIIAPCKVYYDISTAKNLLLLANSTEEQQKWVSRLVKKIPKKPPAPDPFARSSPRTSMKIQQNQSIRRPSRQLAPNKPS
Description: (§1) All assays (25.5 μl) were carried out at room temperature (21° C.) and were linear with respect to time and enzyme concentrations under the conditions used. Assays were performed for 30 minutes except assays for LCK and PKB which were performed for 15 minutes using Multidrop Micro reagent dispensers (Thermo Electron Corporation, Waltham, Mass. 02454, USA) in a 96-well format. The concentration of […] [γ-^33P] ATP (800 cpm/pmol) in the assays was one of three concentrations (5, 20 or 50 μM) in order to be at or below Km for ATP for the enzyme. Assays were initiated with MgATP and stopped by addition of 5 μl of 0.5M orthophosphoric acid. Assays were then harvested onto P81 filterplates using a unifilter harvester (PerkinElmer, Boston, Mass. 02118, USA), with a wash buffer of 50 mM orthophosphoric acid. Filterplates were then air dried overnight. 10 μl of Microscint O was added per well prior to counting for radioactivity.
(§2) MKK1, JNK/SAPK1c, SAPK2a/p38, SAPK2b/p38β2, SAPK3/p38γ, SAPK4/p38δ, MAPK2/ERK2, MAPKAP-K1β, MAPKAP-K2, MSK1, PRAK, PKA, PKCα, PDK1, SGK, p70S6K, GSK3β, ROCK-II, PRK2, AMPK, CHK1, CHK2, CK2, PHK, LCK, were assayed according to Davies et al., (Davies, S. P., Reddy, H., Caivano, M. and Cohen, P. Biochem. J. 351, 95-105, 2000.
(§3) CSK and CDK2/cyclinA, were assayed according to Bain et al. (Bain J, McLauchlan H, Elliott M, Cohen P. Biochem J. 371, 199-204, 2003., except that ATP concentrations were either 5, 20 or 50 micromolar so that they were at or below the Km for ATP. The ATP concentrations used were as follows, 5 μM for assays of MKK1, SAPK3, SAPK4, GSK3β, PRK2 CK2 20 μm for assays of JNK, SAPK2β, MAPKAP-K2, MSK1, PRAK, PKA, […], PDK1, SGK, p70S6K, ROCK-II, CHK1, CHK2, CSK, CDK2, and 50 μM for assays of SAPK2a, MAPK2/ERK2, AMPK, LCK, PHK and MAPKAP-K1β.

CDK2/cyclin A = CDK2/cyclin A (Homo sapiens, UniProt P24941); assay: CDK2/cyclin A 33P kinase assay; type: biochemical; conditions: read-out: CDK2/cyclin A activity as percentage of control without inhibitor
Description: as §1, §3

p70 S6K = p70 S6K (Homo sapiens, UniProt P23443); assay: p70 S6K 33P kinase assay; type: biochemical; conditions: read-out: p70 S6K activity as percentage of control without inhibitor; for remaining activity at 1 µM: inhibitor 1 μM; for remaining activity at 10 µM: inhibitor 10 μM
Chain of p70 S6K (P23443 whole entry): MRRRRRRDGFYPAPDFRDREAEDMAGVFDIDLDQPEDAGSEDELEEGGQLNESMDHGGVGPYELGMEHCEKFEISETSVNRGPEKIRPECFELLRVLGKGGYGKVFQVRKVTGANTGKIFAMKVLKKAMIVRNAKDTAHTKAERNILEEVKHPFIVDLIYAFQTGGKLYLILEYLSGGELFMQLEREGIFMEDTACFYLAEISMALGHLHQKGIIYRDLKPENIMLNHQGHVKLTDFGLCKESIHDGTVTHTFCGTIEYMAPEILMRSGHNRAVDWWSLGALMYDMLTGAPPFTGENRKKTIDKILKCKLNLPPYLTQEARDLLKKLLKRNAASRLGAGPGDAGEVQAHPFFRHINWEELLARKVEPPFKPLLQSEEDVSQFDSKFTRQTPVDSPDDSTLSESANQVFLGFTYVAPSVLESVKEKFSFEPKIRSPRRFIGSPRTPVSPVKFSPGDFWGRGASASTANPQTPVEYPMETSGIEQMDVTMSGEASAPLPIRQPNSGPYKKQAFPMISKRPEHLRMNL
Description: as §1, §2, §3

PKA = PKA (Homo sapiens, UniProt P17612); assay: PKA 33P kinase assay; type: biochemical; conditions: read-out: PKA activity as percentage of control without inhibitor; for remaining activity at 1 µM: inhibitor 1 μM; for remaining activity at 10 µM: inhibitor 10 μM
Description: as §1, §2, §3

CK1 = CK1 33P kinase assay; type: biochemical
Description: as §1

Compound | remaining activity at 1 µM (CAMK-1; inhibitor 1 μM) [%] | remaining activity at 10 µM (CAMK-1; inhibitor 10 μM) [%] | remaining activity at 1 µM (Aurora B; inhibitor 1 μM) [%] | remaining activity at 10 µM (Aurora B; inhibitor 10 μM) [%] | remaining activity at 1 µM (ROCK-II; inhibitor 1 μM) [%] | remaining activity at 10 µM (ROCK-II; inhibitor 10 μM) [%] | remaining activity at 1 µM (CDK2/cyclin A) [%] | remaining activity at 10 µM (CDK2/cyclin A) [%] | remaining activity at 1 µM (p70 S6K) [%] | remaining activity at 10 µM (p70 S6K) [%] | remaining activity at 1 µM (PKA) [%] | remaining activity at 10 µM (PKA) [%] | CK1 activity as percentage of control without inhibitor (CK1; inhibitor 1 μM) [%] | CK1 activity as percentage of control without inhibitor (CK1; inhibitor 10 μM) [%] | further results
COc1ccc2c3c([nH]c2c1)C(C)=NCC3 [Harmaline] | 99 | 110 | 98 | 112 | 99 | 81 | 99 | 98 | 71 | 83 | 70 | 86 | 84 | 65 | –
CC1=NCCc2c1[nH]c1cc(O)ccc21 [Harmalol] | 93 | 60 | 110 | 83 | 96 | 81 | – | – | 95 | 69 | 90 | 75 | 83 | 48 | remaining activity at 1 µM (CDK2/cyclin A; inhibitor 1 μM): 97%; remaining activity at 10 µM (CDK2/cyclin A; inhibitor 10 μM): 77%
COc1ccc2c(c1)[nH]c1c(C)nccc12 [Harmine] | – | – | – | – | – | – | 98 | 62 | 90 | 93 | 82 | 92 | 61 | 21 | remaining activity at 1 µM (CAMK-1): 107%; remaining activity at 10 µM (CAMK-1): 94%; remaining activity at 1 µM (Aurora B): 100%; remaining activity at 10 µM (Aurora B): 102%; remaining activity at 1 µM (ROCK-II): 84%; remaining activity at 10 µM (ROCK-II): 61%
